# Laboratory results taken from PubChem BioAssay (NCI).
#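 Abbreviation: GI50, concentration required for 50% inhibition of growth. Definition used: TGI = concentration required for complete inhibition of growth.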
# Legend:
# Experiment in all cases: growth of human tumour cells (NCI), 384-well format
# 786-0 renal = tested on: 786-0 renal
# A498 renal = tested on: A498 renal
# A549 NSCLC = tested on: A549 NSCLC
# ACHN renal = tested on: ACHN renal
# BT-549 breast = tested on: BT-549 breast
# CAKI-1 renal = tested on: CAKI-1 renal
# CCRF-CEM leukemia = tested on: CCRF-CEM leukemia
# COLO 205 colon = tested on: COLO 205 colon
# DU-145 prostate = tested on: DU-145 prostate
# HCC-2998 colon = tested on: HCC-2998 colon
# HCT-15 colon = tested on: HCT-15 colon
# HL-60(TB) leukemia = tested on: HL-60(TB) leukemia
# HOP-62 NSCLC = tested on: HOP-62 NSCLC
# HT29 colon = tested on: HT29 colon
# IGROV1 ovarian = tested on: IGROV1 ovarian
# K-562 leukemia = tested on: K-562 leukemia
# KM12 colon = tested on: KM12 colon
# LOX IMVI melanoma = tested on: LOX IMVI melanoma
# M14 melanoma = tested on: M14 melanoma
# MALME-3M melanoma = tested on: MALME-3M melanoma
# MCF7 breast = tested on: MCF7 breast
# MDA-MB-231 breast = tested on: MDA-MB-231 breast
# MDA-MB-435 melanoma = tested on: MDA-MB-435 melanoma
# MDA-MB-468 breast = tested on: MDA-MB-468 breast
# MOLT-4 leukemia = tested on: MOLT-4 leukemia
# NCI-H226 lung = tested on: NCI-H226 lung
# NCI-H23 lung = tested on: NCI-H23 lung
# NCI-H322M lung = tested on: NCI-H322M lung
# NCI-H460 NSCLC = tested on: NCI-H460 NSCLC
# NCI-H522 lung = tested on: NCI-H522 lung
# NCI/ADR-RES ovarian = tested on: NCI/ADR-RES ovarian
# OVCAR-3 ovarian = tested on: OVCAR-3 ovarian
# OVCAR-4 ovarian = tested on: OVCAR-4 ovarian
# OVCAR-5 ovarian = tested on: OVCAR-5 ovarian
# OVCAR-8 ovarian = tested on: OVCAR-8 ovarian
# PC-3 prostate = tested on: PC-3 prostate
# RPMI-8226 leukemia = tested on: RPMI-8226 leukemia
# RXF 393 renal = tested on: RXF 393 renal
# SF-268 CNS = tested on: SF-268 CNS
# SF-295 CNS = tested on: SF-295 CNS
# SF-539 CNS = tested on: SF-539 CNS
# SK-MEL-2 melanoma = tested on: SK-MEL-2 melanoma
# SK-MEL-28 melanoma = tested on: SK-MEL-28 melanoma
# SK-MEL-5 melanoma = tested on: SK-MEL-5 melanoma
# SK-OV-3 ovarian = tested on: SK-OV-3 ovarian
# SN12C renal = tested on: SN12C renal
# SNB-19 CNS = tested on: SNB-19 CNS
# SR leukemia = tested on: SR leukemia
# SW-620 colon = tested on: SW-620 colon
# T-47D breast = tested on: T-47D breast
# TK-10 renal = tested on: TK-10 renal
# U251 glioblastoma = tested on: U251 glioblastoma
# UACC-257 melanoma = tested on: UACC-257 melanoma
# UACC-62 melanoma = tested on: UACC-62 melanoma
# UO-31 renal = tested on: UO-31 renal
structure (smiles),measurement,setting,value
CN(C)C/C=C/C(=O)Nc1ccc(C(=O)Nc2cccc(Nc3ncc(Cl)c(-c4c[nH]c5ccccc45)n3)c2)cc1,GI50,786-0 renal,23.9 nM
same,TGI,786-0 renal,83.3 nM
same,GI50,A498 renal,17.2 nM
same,TGI,A498 renal,55.9 nM
same,GI50,A549 NSCLC,31.1 nM
same,TGI,A549 NSCLC,110 nM
same,GI50,ACHN renal,20.5 nM
same,TGI,ACHN renal,83 nM
same,GI50,BT-549 breast,< 10 nM
same,TGI,BT-549 breast,13.7 nM
same,GI50,CAKI-1 renal,14.2 nM
same,TGI,CAKI-1 renal,46.9 nM
same,GI50,CCRF-CEM leukemia,< 10 nM
same,TGI,CCRF-CEM leukemia,< 10 nM
same,GI50,COLO 205 colon,< 10 nM
same,TGI,COLO 205 colon,13.4 nM
same,GI50,DU-145 prostate,16.2 nM
same,TGI,DU-145 prostate,60.2 nM
same,GI50,HCC-2998 colon,< 10 nM
same,TGI,HCC-2998 colon,20.6 nM
same,GI50,HCT-15 colon,45.1 nM
same,TGI,HCT-15 colon,213 nM
same,GI50,HL-60(TB) leukemia,< 10 nM
same,TGI,HL-60(TB) leukemia,< 10 nM
same,GI50,HOP-62 NSCLC,15.8 nM
same,TGI,HOP-62 NSCLC,47.9 nM
same,GI50,HT29 colon,20 nM
same,TGI,HT29 colon,47.5 nM
same,GI50,IGROV1 ovarian,12.5 nM
same,TGI,IGROV1 ovarian,51.9 nM
same,GI50,K-562 leukemia,< 10 nM
same,TGI,K-562 leukemia,103 nM
same,GI50,KM12 colon,17.7 nM
same,TGI,KM12 colon,41.1 nM
same,GI50,LOX IMVI melanoma,< 10 nM
same,TGI,LOX IMVI melanoma,28.2 nM
same,GI50,M14 melanoma,14.5 nM
same,TGI,M14 melanoma,29.5 nM
same,GI50,MALME-3M melanoma,14.7 nM
same,TGI,MALME-3M melanoma,29.9 nM
same,GI50,MCF7 breast,< 10 nM
same,TGI,MCF7 breast,166 nM
same,GI50,MDA-MB-231 breast,< 10 nM
same,TGI,MDA-MB-231 breast,44.8 nM
same,GI50,MDA-MB-435 melanoma,13.3 nM
same,TGI,MDA-MB-435 melanoma,35.4 nM
same,GI50,MDA-MB-468 breast,< 10 nM
same,TGI,MDA-MB-468 breast,14.4 nM
same,GI50,MOLT-4 leukemia,< 10 nM
same,TGI,MOLT-4 leukemia,12.4 nM
same,GI50,NCI-H226 lung,12.4 nM
same,TGI,NCI-H226 lung,33.6 nM
same,GI50,NCI-H23 lung,10.6 nM
same,TGI,NCI-H23 lung,25.4 nM
same,GI50,NCI-H322M lung,20.9 nM
same,TGI,NCI-H322M lung,49.5 nM
same,GI50,NCI-H460 NSCLC,17.3 nM
same,TGI,NCI-H460 NSCLC,37.2 nM
same,GI50,NCI-H522 lung,< 10 nM
same,TGI,NCI-H522 lung,< 10 nM
same,GI50,NCI/ADR-RES ovarian,525 nM
same,TGI,NCI/ADR-RES ovarian,12200 nM
same,GI50,OVCAR-3 ovarian,< 10 nM
same,TGI,OVCAR-3 ovarian,11 nM
same,GI50,OVCAR-4 ovarian,< 10 nM
same,TGI,OVCAR-4 ovarian,25.4 nM
same,GI50,OVCAR-5 ovarian,21.4 nM
same,TGI,OVCAR-5 ovarian,1200 nM
same,GI50,OVCAR-8 ovarian,16.5 nM
same,TGI,OVCAR-8 ovarian,39.8 nM
same,GI50,PC-3 prostate,20.6 nM
same,TGI,PC-3 prostate,54.5 nM
same,GI50,RPMI-8226 leukemia,13.7 nM
same,TGI,RPMI-8226 leukemia,26.8 nM
same,GI50,RXF 393 renal,< 10 nM
same,TGI,RXF 393 renal,< 10 nM
same,GI50,SF-268 CNS,< 10 nM
same,TGI,SF-268 CNS,17.4 nM
same,GI50,SF-295 CNS,31.4 nM
same,TGI,SF-295 CNS,99.4 nM
same,GI50,SF-539 CNS,< 10 nM
same,TGI,SF-539 CNS,19.5 nM
same,GI50,SK-MEL-2 melanoma,< 10 nM
same,TGI,SK-MEL-2 melanoma,13.3 nM
same,GI50,SK-MEL-28 melanoma,< 10 nM
same,TGI,SK-MEL-28 melanoma,15.2 nM
same,GI50,SK-MEL-5 melanoma,< 10 nM
same,TGI,SK-MEL-5 melanoma,20.7 nM
same,GI50,SK-OV-3 ovarian,11.4 nM
same,TGI,SK-OV-3 ovarian,45.9 nM
same,GI50,SN12C renal,10.3 nM
same,TGI,SN12C renal,29.4 nM
same,GI50,SNB-19 CNS,20.1 nM
same,TGI,SNB-19 CNS,174 nM
same,GI50,SR leukemia,< 10 nM
same,TGI,SR leukemia,< 10 nM
same,GI50,SW-620 colon,< 10 nM
same,TGI,SW-620 colon,42 nM
same,GI50,T-47D breast,14.2 nM
same,TGI,T-47D breast,73.3 nM
same,GI50,TK-10 renal,21.8 nM
same,TGI,TK-10 renal,55.9 nM
same,GI50,U251 glioblastoma,< 10 nM
same,TGI,U251 glioblastoma,27.4 nM
same,GI50,UACC-257 melanoma,< 10 nM
same,TGI,UACC-257 melanoma,21.3 nM
same,GI50,UACC-62 melanoma,< 10 nM
same,TGI,UACC-62 melanoma,18.7 nM
same,GI50,UO-31 renal,105 nM
same,TGI,UO-31 renal,372 nM
